Molecular target: T1, mineralo-corticoid receptor of the rat kidney (Rattus norvegicus, UniProt P22199)
T1 construct: The kidneys were then removed, decapsulated and homogenized at 0° C; from tissue; host or cells: kidney of adrenalectomized male Sprague-Dawley EOPS rats, 105,000 g supernatant (cytosol)
T1 sequence (P22199 1-981): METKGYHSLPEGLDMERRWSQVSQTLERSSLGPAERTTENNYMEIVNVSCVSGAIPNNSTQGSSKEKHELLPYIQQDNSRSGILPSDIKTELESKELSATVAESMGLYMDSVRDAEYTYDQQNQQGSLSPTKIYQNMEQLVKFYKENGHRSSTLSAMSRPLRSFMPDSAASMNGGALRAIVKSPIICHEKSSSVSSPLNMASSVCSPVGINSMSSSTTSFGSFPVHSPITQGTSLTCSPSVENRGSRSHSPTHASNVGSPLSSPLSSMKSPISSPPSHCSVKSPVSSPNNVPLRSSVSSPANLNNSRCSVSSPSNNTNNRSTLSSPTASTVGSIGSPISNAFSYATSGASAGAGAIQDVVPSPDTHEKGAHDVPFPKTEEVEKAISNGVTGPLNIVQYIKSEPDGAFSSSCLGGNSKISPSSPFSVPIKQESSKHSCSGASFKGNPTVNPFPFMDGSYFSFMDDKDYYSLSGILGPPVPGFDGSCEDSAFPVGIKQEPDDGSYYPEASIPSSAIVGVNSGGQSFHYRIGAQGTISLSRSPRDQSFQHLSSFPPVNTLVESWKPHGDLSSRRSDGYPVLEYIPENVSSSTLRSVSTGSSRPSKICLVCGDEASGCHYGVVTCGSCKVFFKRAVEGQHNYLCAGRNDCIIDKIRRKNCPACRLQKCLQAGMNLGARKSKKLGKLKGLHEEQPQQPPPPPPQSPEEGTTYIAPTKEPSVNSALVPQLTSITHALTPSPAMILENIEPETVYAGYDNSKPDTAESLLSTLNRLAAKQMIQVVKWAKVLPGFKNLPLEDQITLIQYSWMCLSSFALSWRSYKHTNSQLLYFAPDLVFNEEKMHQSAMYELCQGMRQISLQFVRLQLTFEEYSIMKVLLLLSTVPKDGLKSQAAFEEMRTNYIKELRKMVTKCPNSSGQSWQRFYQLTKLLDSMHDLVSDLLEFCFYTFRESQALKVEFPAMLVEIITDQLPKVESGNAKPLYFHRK
Experiment: Anti-aldosterone activity: displacement of tritiated aldosterone from the mineralo-corticoid receptor of the rat kidney (relative liaison affinity)
Format: binding
Details: vs cold aldosterone as reference hormone, rat kidney cytosol
Description: Study of the anti-aldosterone activity of the mineralo-corticoid receptor of the rat kidney
Male Sprague-Dawley EOPS rats weighing 140 to 160 g, suprarenalectomized 4 to 6 days earlier, were killed and their kidneys were perfused in situ with 50 ml of Tris 10 mM-saccharose 0.25M buffer, HCl pH 7.4. The kidneys were then removed, decapsulated and homogenized at 0° C. with a Potter polytetrafluoroethylene glass (1 g of tissue for 3 ml of buffer). The homogenate was centrifuged for 10 minutes at 800 g at 0° C. To eliminate the fixation of the tritiated aldosterone on the glucocorticoid receptor, 11β,17β-dihydroxy-17α-(1-propynyl)-Δ^1,4,6 -androstatrien-3-one which fixes uniquely on the glucocorticoid receptor was added to the supernatant at a final concentration of 10^-6 M. This supernatant was ultracentrifuged at 105,000 g for 60 minutes at 0° C. and aliquots of the supernatant were incubated at 0° C. with a constant concentration (T) of tritiated aldosterone in the presence of increasing concentrations (0-2500×10^-9 M) of cold aldosterone or of the cold product under study. After an incubation time (t), the concentration of tritiated aldosterone bound (B) was measured by the technique of adsorption on charcoal-dextran.
The calculation of the relative liaison affinity (RLA) was carried out as follows: The two following curves were drawn: the percentage of tritiated hormone bonded B/T as a function of the logarithm of the concentration of the cold reference hormone, and B/T as a function of the logarithm of the concentration of the cold product under test. The straight line of the equation I50 =(B/T max+B/T min)/2 was determine B/T max=percentage of the tritiated hormone bonded for an incubation of this triated hormone at the concentration (T), B/T min=percentage of the tritiated hormone bonded for an incubation of this tritiated hormone at the concentration (T) in the presence of a great excess of cold hormone (2500.10^-9 M). The intersections of the straight line I50 and the curves enabled the concentrations of the cold reference hormone (CH) and of the cold product tested (CX) to be evaluated which inhibited by 50% the bonding of the tritiated hormone on the receptor. The relative liaison affinity (RAL) of the product tested is determined by the equation: [formula] The following results were obtained;

[1] = incubation time at 0° C.: 1 hour
[2] = incubation time at 0° C.: 24 hours

| SMILES | relative liaison affinity (RLA) [1] | relative liaison affinity (RLA) [2] |
| --- | --- | --- |
| CC#C[C@]12CCC(=O)C=C1CC[C@@H]1[C@@H]2CC[C@@]2(C)[C@H]1CC[C@@]21CCC(=O)O1 [Example 3, γ-lactone of 17β-hydroxy-3-oxo-10β-(1-propynyl)-19-nor-17α-Δ^4-pregnene-21-carboxylic acid] | 50 | 43 |
| C#C[C@]12CCC(=O)C=C1CC[C@@H]1[C@@H]2CC[C@@]2(C)[C@H]1CC[C@@]21CCC(=O)O1 [Example 1, Gamma-lactone of 10β-ethynyl-17β-hydroxy-3-oxo-19-nor-17α-Δ^4-pregnen 21-carboxylic acid] | 125 | 65 |

From patent US4987128A, “Novel 10β-alkynyl-steroids” (Roussel Uclaf, priority 1986, dated 1991)
